Source: patent publication US11370781B2, “Combination therapy for treating cancer” (Epizyme, Inc., priority 2012, dated 2022)
Entries after “also recorded” stand apart in the source; their conditions may differ. Read-outs that look alike come from different tables or passages of the source.

Assays:
Toledo cells = assay: Anti-proliferative combination matrix, Cell Titer-Glo, Toledo; conditions: Toledo (WT EZH2); for combination benefit: drug combined with Compound 44, 6 days Compound 44 then 5 days combination
Description: (§7) The WSU-DLCL2 and SU-DHL-10 contain the Y641 EZH2 mutation, and the Toledo cell line contains WT EZH2.
(§8) Increasing doses of drugs were then added to the plates. […] After incubation for an additional 3 days cell viability of WSU-DLCL2 or SU-DHL-10 was measured using Promega Cell Titer-Glo reagent followed by luminescence detection. After 5 days viability of Toledo cells was measured using Promega Cell Titer-Glo reagent followed by luminescence detection.
(§9) First, raw luminescence values were converted to percent inhibition or fraction affected (Fa) calculated using controls for maximum inhibition and DMSO treated cells for minimum inhibition control located on each plate. Percent inhibition values for each constant ratio of compound combinations were entered into Calcusyn to determine the combination index values.

WSU-DLCL2 cells = assay: Anti-proliferative combination matrix, Cell Titer-Glo, WSU-DLCL2; conditions: for synergy characterization (Chou-Talalay): drug combined with Compound 44; for enhancement of Compound 44 potency (fold IC50 shift): drug combined with Compound 44, top dose of drug, 4 days Compound 44 then 3 days combination
Description: as §7, §8, §9

SU-DHL-10 cells = assay: Anti-proliferative combination matrix, Cell Titer-Glo, SU-DHL-10; conditions: for synergy characterization (Chou-Talalay): drug combined with Compound 44; for enhancement of Compound 44 potency (fold IC50 shift): drug combined with Compound 44, top dose of drug, 4 days Compound 44 then 3 days combination
Description: as §7, §8, §9

[1] = test system: WSU-DLCL2 human lymphoma cells; assay: Cell viability of WSU-DLCL2 cells, Guava ViaCount and flow cytometry; assay type: cell-based; conditions: for cell viability, combination with Compound 44: WSU-DLCL2
Description: The dosage schedule is depicted in FIG. 1A. […] After 4 days, cell viability was determined using Millipore Guava ViaCount Reagent and flow cytometry analysis.
Cell viability was determined by staining with Millipore Guava ViaCount Reagent and then analyzed by flow cytometry.
(§1) Cell viability was determined 4 days later using Millipore Guava ViaCount reagent and flow cytometry analysis. Percentage of cell viability was normalized to percentage of the DMSO-treated sample.

RL cells = assay: Cell viability of RL cells, Guava ViaCount and flow cytometry; assay type: cell-based, human; conditions: RL cells (EZH2 Y641N); for cell viability: single agent
Description: as §1

OCI-LY19 cell line = assay: Cell viability of OCI-LY19 cells, Guava ViaCount and flow cytometry; assay type: cell-based, human; conditions: OCI-LY19 (wild-type EZH2); for cell viability: single agent
Description: as §1

[2] = test system: SUDHL6 human lymphoma cells; assay: Efficacy study in SUDHL6 xenograft model; assay type: in vivo, athymic nude mice; conditions: Compound 44 alone over the 28 day treatment
Description: (§2) The animals were fed ad libitum water (reverse osmosis 1 ppm Cl) and NIH 31 Modified and Irradiated Lab Diet® consisting of 18.0% crude protein, 5.0% crude fat, and 5.0% crude fiber. The mice were housed on irradiated Enrich-o'cobs™ bedding in static microisolators on a 12-hour light cycle at 20-22° C. (68-72° F.) and 40-60% humidity. All procedures comply with the recommendations of the Guide for Care and Use of Laboratory Animals with respect to restraint, husbandry, surgical procedures, feed and fluid regulation, and veterinary care.
(§3) Human lymphoma cell lines were harvested during mid-log phase growth, and resuspended in PBS with 50% Matrigel™ (BD Biosciences). Each mouse received 1×10^7 cells (0.2 mL cell suspension) subcutaneously in the right flank. Tumors were calipered in two dimensions to monitor growth as the mean volume approached the desired 80-120 mm^3 range. Tumor size, in mm^3, was calculated from: […]
(§4) Mice were treated at compound doses ranging from 75-600 mg/kg and at TID (3 times a day every 8 h), BID (twice a day every 12 h) or QD (once a day) schedules for various amount of days by oral gavage or injections via the intravenous, intraperitoneal or subcutaneous routes. Each dose was delivered in a volume of 0.2 mL/20 g mouse (10 mL/kg), and adjusted for the last recorded weight of individual animals. […]

[3] = test system: WSU-DLCL2 human lymphoma cells; assay: Efficacy study in WSU-DLCL2 xenograft model; assay type: in vivo; conditions: 28 days
Description: as §2, §3
(§5) Compounds of Formula (IIa) were stored at room temperature and protected from light. On each treatment day, a fresh compound formulations were prepared by suspending the powders in 0.5% sodium carboxymethylcellulose (NaCMC) and 0.1% Tween® 80 in deionized water. […] Formulations were stored away from light at 4° C. prior to administration.
Several chemotherapeutica were used in parallel to Epizyme compounds. Cyclophosphamide (Baxter, Lot #016591), was reconstituted to 20 mg/mL with sterile saline and stored at 4° C. A fresh dosing solution was prepared for each dose by dilution with saline. Doxorubicin (Doxorubicin Meiji®, Meiji Pharmaceutical Co. Ltd., 1 mg/mL) was stored at 4° C. and diluted with saline on each treatment day. Vincristine (Hospira, Inc., 1 mg/mL) was diluted with saline on each treatment day. Prednisone (Boehringer Ingelheim GmbH, 1 mg/mL) was diluted with PBS at the beginning of each 5-day dosing cycle.
Mice were treated at compound doses ranging from 75-600 mg/kg and at TID (3 times a day every 8 h), BID (twice a day every 12 h) or QD (once a day) schedules for various amount of days by oral gavage or injections via the intravenous, intraperitoneal or subcutaneous routes. Each dose was delivered in a volume of 0.2 mL/20 g mouse (10 mL/kg), and adjusted for the last recorded weight of individual animals. The maximal treatment length was 28 days.
(§6) Treatment efficacy was determined on the last treatment day. MTV(n), the median tumor volume for the number of animals, n, evaluable on the last day, was determined for each group. Percent tumor growth inhibition (% TGI) can be defined several ways. First, the difference between the MTV(n) of the designated control group and the MTV(n) of the drug-treated group is expressed as a percentage of the MTV(n) of the control group: […]
Another way of calculating % TGI is taking the change of the tumor size from day 1 to day n into account with n being the last treatment day.
SCID mice were subcutaneously injected with 1×10^7 WSU-DLCL2 human lymphoma cells. […] Tumor volume was measured twice a week until the endpoint of 28 days.

H3K27me3 = assay: Histone methylation status in WSU-DLCL2 xenograft tumors, Western blot and ELISA; assay type: in vivo, SCID mice; conditions: after 28 days of treatment
Description: Histones were extracted from tumor samples as described above. […] The plates were sealed and incubated overnight at 4° C. The following day, plates were washed 3× with 300 ul/well PBST (PBS+0.05% Tween 20; 10×PBST, KPL #51-14-02) on a Bio Tek plate washer. Plates were blocked with 300 ul/well of diluent (PBS+2% BSA+0.05% Tween 20), incubated at RT for 2 hours, and washed 3× with PBST. All antibodies were diluted in diluent. […] Plates were washed 4× with PBST. For detection, 100 ul/well of TMB substrate (BioFx Laboratories, #TMBS) was added and plates incubated in the dark at RT for 5 min. […] Absorbance at 450 nm was read on SpectaMax M5 Microplate reader.

[4] = test system: SUDHL10 human lymphoma cells; assay type: in vivo; conditions: 28 days
Description: as §2, §3, §5
Several chemotherapeutica were used in parallel to Epizyme compounds. […]
as §4
as §6, with “Percent tumor growth inhibition (% TGI) can be defined several ways.” left out

[5] = Compound 44 plasma concentration in WSU-DLCL2 tumor-bearing mice, LC-MS/MS; conditions: 225 mg/kg BID
Description: On several days during the study mice were sampled in a pre-specified fashion. Sampling included non-terminal bleeds (0.25 mL) from the mandibular vein without anesthesia and full volume blood collection via terminal cardiac puncture under CO2 anesthesia. Blood samples were processed for plasma, with K2-EDTA as anti-coagulant. The plasma samples were frozen at −80° C. and stored prior to bioanalysis of compound levels.
Plasma samples were obtained on day 28 at 5 minutes prior to the last dose (“trough”) and 3 hours after the last dose (“post”).

[6] = Compound 44 for 4 days, then Compound 44 plus agent for 4 days (FIG. 1A schedule)

## Nc1ccn([C@@H]2O[C@H](CO)[C@@H](O)[C@@H]2O)c(=O)n1 [AraC]
Toledo cells
  combination benefit: no combination benefit; also recorded: No enhancement
WSU-DLCL2 cells
  synergy characterization (Chou-Talalay): Synergism
SU-DHL-10 cells
  synergy characterization (Chou-Talalay): Synergism

## N.N.[Cl][Pt][Cl] [Cisplatin]
Toledo cells
  combination benefit: no combination benefit; also recorded: No enhancement
WSU-DLCL2 cells
  synergy characterization (Chou-Talalay): Synergism
SU-DHL-10 cells
  synergy characterization (Chou-Talalay): synergism

## CCN(c1cc(-c2ccc(CN3CCOCC3)cc2)cc(C(=O)NCc2c(C)cc(C)[nH]c2=O)c1C)C1CCOCC1 [Compound 44, N-((4,6-dimethyl-2-oxo-1,2-dihydropyridin-3-yl)methyl)-5-(ethyl (tetrahydro-2H-pyran-4-yl)amino)-4-methyl-4′-(morpholinomethyl)-[1,1′-biphenyl]-3-carboxamide]
[1]; single agent, increasing concentrations, WSU-DLCL2 (EZH2 Y641F)
  cell viability: decrease in cell viability; also recorded: reduction of cell growth
RL cells
  cell viability: does not result in a reduction in cell viability
OCI-LY19 cell line
  cell viability: does not affect cell viability; also recorded: do not show sensitivity
[2]
  single agent efficacy: not observed
[3]; Compound 44 150 mg/kg TID
  % TGI from day 1: 73%
  % TGI from day 7: 86%
[3]; Compound 44 225 mg/kg BID
  % TGI from day 1: 71%
  % TGI from day 7: 80%
[3]; Compound 44 300 mg/kg BID
  % TGI from day 1: 57%
  % TGI from day 7: 67%
[3]; Compound 44 600 mg/kg QD
  % TGI from day 1: 58%
  % TGI from day 7: 70%
H3K27me3; H3K27me3 normalized to total H3
  methylation of H3K27 in tumors, ELISA: inhibited
H3K27me3; all dosages and dosing schedules
  methylation of H3K27 in tumors, Western blot: inhibited
[4]; Compound 44 125 mg/kg BID
  % TGI from day 7: 57%
[4]; Compound 44 250 mg/kg BID
  % TGI from day 7: 113%
[4]; Compound 44 500 mg/kg BID
  % TGI from day 7: 115%
Toledo cells; Compound 44 alone
  sensitivity of cell viability: no sensitivity
[5]; day 28, 3 hours after the last dose
  Compound 44 plasma level, with CHOP vs single agent: significantly increased
[5]; day 28, trough (5 minutes prior to the last dose)
  Compound 44 plasma level, with CHOP vs single agent: not significantly different

## C[C@@H]1C[C@H]2[C@@H]3CCC4=CC(=O)C=C[C@]4(C)[C@@]3(F)[C@@H](O)C[C@]2(C)[C@@]1(O)C(=O)CO [Dexamethasone]
WSU-DLCL2 cells
  enhancement of Compound 44 potency (fold IC50 shift): 17 fold
SU-DHL-10 cells
  enhancement of Compound 44 potency (fold IC50 shift): 3 fold

## COc1cccc2c1C(=O)c1c(O)c3c(c(O)c1C2=O)C[C@@](O)(C(=O)CO)C[C@@H]3O[C@H]1C[C@H](N)[C@H](O)[C@H](C)O1 [Doxorubicin]
[1]; [6]
  cell viability, combination with Compound 44: did not exhibit reduced cell viability
Toledo cells
  combination benefit: no combination benefit; also recorded: No enhancement
WSU-DLCL2 cells
  synergy characterization (Chou-Talalay): Synergism
SU-DHL-10 cells
  synergy characterization (Chou-Talalay): Synergism

## CO[C@H]1C[C@@H]2CC[C@@H](C)[C@@](O)(O2)C(=O)C(=O)N2CCCC[C@H]2C(=O)O[C@H]([C@H](C)C[C@@H]2CC[C@@H](OCCO)[C@H](OC)C2)CC(=O)[C@H](C)/C=C(\C)[C@@H](O)[C@@H](OC)C(=O)[C@H](C)C[C@H](C)/C=C/C=C/C=C/1C [Everolimus]
Toledo cells
  combination benefit: no combination benefit; also recorded: No enhancement
WSU-DLCL2 cells
  synergy characterization (Chou-Talalay): very strong synergism
SU-DHL-10 cells
  synergy characterization (Chou-Talalay): Strong synergism

## C[C@]12C=CC(=O)C=C1CC[C@@H]1[C@@H]2[C@@H](O)C[C@@]2(C)[C@H]1CC[C@]2(O)C(=O)CO [Prednisolone]
[1]; Compound 44 first, then agent alone (FIG. 1B schedule)
  cell viability, combination with Compound 44: additional reduction of cell viability
[1]; [6]
  cell viability, combination with Compound 44: synergistic reduction in cell viability; also recorded: additional reduction of cell growth; also recorded: reduced cell viability
[1]; agent first, then Compound 44 plus agent (FIG. 1C schedule)
  cell viability, combination with Compound 44: did not cause a synergistic effect on cell viability
RL cells; FIG. 1A schedule
  cell viability, combination with Compound 44: synergistic effect
RL cells
  cell viability: resistant
OCI-LY19 cell line; FIG. 1A schedule
  cell viability, combination with Compound 44: does not have an additional or synergistic effect on cell viability
OCI-LY19 cell line
  cell viability: show sensitivity
Toledo cells
  combination benefit: no combination benefit; also recorded: No enhancement
WSU-DLCL2 cells
  enhancement of Compound 44 potency (fold IC50 shift): 7 fold
SU-DHL-10 cells
  enhancement of Compound 44 potency (fold IC50 shift): 3 fold

## CC[C@]1(O)C[C@H]2CN(CCc3c([nH]c4ccccc34)[C@@](C(=O)OC)(c3cc4c(cc3OC)N(C=O)[C@H]3[C@@](O)(C(=O)OC)[C@H](OC(C)=O)[C@]5(CC)C=CCN6CC[C@]43[C@@H]65)C2)C1 [Vincristine]
[1]; [6]
  cell viability, combination with Compound 44: reduced cell viability at the highest concentration Compound 44
